Assay: xn = mol fraction of the nth substance listed
Details: 100 kPa, Liquid; for viscosity: Falling or rolling sphere viscometry; for mass density: Vibrating tube method

C1CCC(C2CCCCC2)CC1 [1,1'-bicyclohexyl] + CCCCO
Details	mass density, 293.15 K [kg/m3]	mass density, 298.15 K [kg/m3]	mass density, 303.15 K [kg/m3]	mass density, 308.15 K [kg/m3]	viscosity, 293.15 K [mPa·s]	viscosity, 298.15 K [mPa·s]	viscosity, 303.15 K [mPa·s]	viscosity, 308.15 K [mPa·s]	viscosity, 313.15 K [mPa·s]
x1 = 0.1007	823.66	819.86	816.02	812.14	2.853	2.507	2.214	1.963	1.749
x1 = 0.2009	835.23	831.42	827.58	823.71	2.878	2.527	2.232	1.982	1.767
x1 = 0.3021	845.04	841.24	837.4	833.53	2.902	2.548	2.254	2.006	1.793
x1 = 0.4007	853.19	849.39	845.56	841.7	2.957	2.603	2.306	2.054	1.84
x1 = 0.5038	860.51	856.73	852.92	849.08	3.002	2.648	2.353	2.102	1.881
x1 = 0.5992	866.48	862.71	858.93	855.12	3.096	2.734	2.431	2.179	1.957
x1 = 0.7006	872.11	868.37	864.61	860.84	3.227	2.851	2.539	2.273	2.048
x1 = 0.7983	877.03	873.33	869.6	865.87	3.418	3.02	2.689	2.411	2.17
x1 = 0.8835	880.86	877.19	873.49	869.8	3.575	3.158	2.807	2.513	2.262
x1 = 1	886.05	882.44	878.84	875.25	4.003	3.53	3.137	2.81	2.532
